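Assay format: 96-well plates, 48-hour exposure. GI50 = concentration required for 50% inhibition of growth.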 Activity calls are given as the source filed them. No stated cut-off is given here; in the data, active = GI50 up to about 1.1 µM and inactive = higher.
Assays:
Test in all cases: DTP human tumour cell line panel, 48 h
HCT-15 = system: HCT-15
MDA-MB-231 = system: MDA-MB-231
HCT-116 = system: HCT-116
UACC-257 = system: UACC-257
MCF7 = system: MCF7
TK-10 = system: TK-10
SF-295 = system: SF-295
OVCAR-3 = system: OVCAR-3
HT-29 = system: HT-29
SF-268 = system: SF-268
NCI/ADR-RES = system: NCI/ADR-RES
NCI-H23 = system: NCI-H23
PC-3 = system: PC-3
Hs-578T = system: Hs-578T
A498 = system: A498
HCC 2998 = system: HCC 2998
CCRF-CEM = system: CCRF-CEM
K562 = system: K562
SK-MEL-28 = system: SK-MEL-28
SN12C = system: SN12C
MDA-N = system: MDA-N
NCI-H522 = system: NCI-H522
786-0 = system: 786-0
U-251 = system: U-251
OVCAR-5 = system: OVCAR-5
RXF 393 = system: RXF 393
A549 = system: A549
HOP-92 = system: HOP-92
KM12 = system: KM12
Malme-3M = system: Malme-3M
SK-MEL-5 = system: SK-MEL-5
RPMI-8226 = system: RPMI-8226
CAKI-1 = system: CAKI-1
SW-620 = system: SW-620
COLO 205 = system: COLO 205
OVCAR-4 = system: OVCAR-4
SK-MEL-2 = system: SK-MEL-2
OVCAR-8 = system: OVCAR-8
LOX IMVI = system: LOX IMVI
IGROV-1 = system: IGROV-1
M14 = system: M14
UACC-62 = system: UACC-62
DU-145 = system: DU-145
HOP-62 = system: HOP-62
ACHN = system: ACHN
NCI-H460 = system: NCI-H460
NCI-H226 = system: NCI-H226
MOLT-4 = system: MOLT-4
T47D = system: T47D
EKVX = system: EKVX
UO-31 = system: UO-31
SNB-19 = system: SNB-19
SK-OV-3 = system: SK-OV-3
MDA-MB-435 = system: MDA-MB-435
SF-539 = system: SF-539
BT-549 = system: BT-549
SR = system: SR
SNB-75 = system: SNB-75
HL-60 = system: HL-60

NC(Cc1ccccc1)(C(=O)O)C(=O)O
GI50 (HCT-15): > 100 µM | GI50 (MDA-MB-231): > 100 µM (inactive) | GI50 (HCT-116): > 100 µM (inactive) | GI50 (UACC-257): > 100 µM (inactive) | GI50 (MCF7): > 100 µM (inactive) | GI50 (TK-10): > 100 µM (inactive) | GI50 (SF-295): > 100 µM (inactive) | GI50 (OVCAR-3): > 100 µM (inactive) | GI50 (HT-29): > 100 µM (inactive) | GI50 (SF-268): > 100 µM (inactive) | GI50 (NCI/ADR-RES): > 100 µM (inactive) | GI50 (NCI-H23): > 100 µM (inactive) | GI50 (PC-3): > 100 µM (inactive) | GI50 (Hs-578T): > 100 µM (inactive) | GI50 (A498): > 100 µM (inactive) | GI50 (HCC 2998): > 100 µM (inactive) | GI50 (CCRF-CEM): > 100 µM (inactive) | GI50 (K562): > 100 µM (inactive) | GI50 (SK-MEL-28): > 100 µM (inactive) | GI50 (SN12C): > 100 µM (inactive) | GI50 (MDA-N): > 100 µM (inactive) | GI50 (NCI-H522): > 100 µM (inactive) | GI50 (786-0): > 100 µM (inactive) | GI50 (U-251): > 100 µM (inactive) | GI50 (OVCAR-5): > 100 µM (inactive) | GI50 (RXF 393): > 100 µM (inactive) | GI50 (A549): > 100 µM (inactive) | GI50 (HOP-92): > 100 µM (inactive) | GI50 (KM12): > 100 µM (inactive) | GI50 (Malme-3M): > 100 µM (inactive) | GI50 (SK-MEL-5): > 100 µM (inactive) | GI50 (RPMI-8226): > 100 µM (inactive) | GI50 (CAKI-1): 14.8 µM (inactive) | GI50 (SW-620): > 100 µM (inactive) | GI50 (COLO 205): > 100 µM (inactive) | GI50 (OVCAR-4): > 100 µM (inactive) | GI50 (SK-MEL-2): > 100 µM (inactive) | GI50 (OVCAR-8): > 100 µM (inactive) | GI50 (LOX IMVI): > 100 µM (inactive) | GI50 (IGROV-1): > 100 µM (inactive) | GI50 (M14): > 100 µM (inactive) | GI50 (UACC-62): > 100 µM (inactive) | GI50 (DU-145): > 100 µM (inactive) | GI50 (HOP-62): > 100 µM (inactive) | GI50 (ACHN): > 100 µM (inactive) | GI50 (NCI-H460): > 100 µM (inactive) | GI50 (NCI-H226): > 100 µM (inactive) | GI50 (MOLT-4): > 100 µM (inactive) | GI50 (T47D): > 100 µM (inactive) | GI50 (EKVX): > 100 µM (inactive) | GI50 (UO-31): > 100 µM (inactive) | GI50 (SNB-19): > 100 µM (inactive) | GI50 (SK-OV-3): > 100 µM (inactive) | GI50 (MDA-MB-435): > 100 µM (inactive) | GI50 (SF-539): > 100 µM (inactive) | GI50 (BT-549): > 100 µM (inactive)

Cn1ccc2c(c1=O)C(=O)OC2(C)C [CERPEGIN]
GI50 (HCT-15): > 100 µM | GI50 (MDA-MB-231): > 100 µM (inactive) | GI50 (HCT-116): > 100 µM (inactive) | GI50 (UACC-257): > 100 µM (inactive) | GI50 (MCF7): > 100 µM (inactive) | GI50 (SR): > 100 µM (inactive) | GI50 (TK-10): > 100 µM (inactive) | GI50 (SF-295): > 100 µM (inactive) | GI50 (OVCAR-3): > 100 µM (inactive) | GI50 (HT-29): > 100 µM (inactive) | GI50 (SF-268): > 100 µM (inactive) | GI50 (NCI/ADR-RES): > 100 µM (inactive) | GI50 (NCI-H23): > 100 µM (inactive) | GI50 (PC-3): > 100 µM (inactive) | GI50 (Hs-578T): > 100 µM (inactive) | GI50 (A498): > 100 µM (inactive) | GI50 (HCC 2998): > 100 µM (inactive) | GI50 (CCRF-CEM): > 100 µM (inactive) | GI50 (K562): > 100 µM (inactive) | GI50 (SK-MEL-28): > 100 µM (inactive) | GI50 (SN12C): > 100 µM (inactive) | GI50 (MDA-N): > 100 µM (inactive) | GI50 (786-0): > 100 µM (inactive) | GI50 (U-251): > 100 µM (inactive) | GI50 (OVCAR-5): > 100 µM (inactive) | GI50 (RXF 393): > 100 µM (inactive) | GI50 (A549): > 100 µM (inactive) | GI50 (KM12): > 100 µM (inactive) | GI50 (Malme-3M): 65.6 µM (inactive) | GI50 (SK-MEL-5): > 100 µM (inactive) | GI50 (RPMI-8226): > 100 µM (inactive) | GI50 (CAKI-1): > 100 µM (inactive) | GI50 (SW-620): > 100 µM (inactive) | GI50 (COLO 205): > 100 µM (inactive) | GI50 (OVCAR-4): > 100 µM (inactive) | GI50 (OVCAR-8): > 100 µM (inactive) | GI50 (LOX IMVI): > 100 µM (inactive) | GI50 (IGROV-1): > 100 µM (inactive) | GI50 (M14): > 100 µM (inactive) | GI50 (UACC-62): > 100 µM (inactive) | GI50 (DU-145): > 100 µM (inactive) | GI50 (HOP-62): > 100 µM (inactive) | GI50 (SNB-75): > 100 µM (inactive) | GI50 (ACHN): > 100 µM (inactive) | GI50 (NCI-H460): > 100 µM (inactive) | GI50 (NCI-H226): > 100 µM (inactive) | GI50 (MOLT-4): > 100 µM (inactive) | GI50 (T47D): > 100 µM (inactive) | GI50 (EKVX): > 100 µM (inactive) | GI50 (UO-31): 59.2 µM (inactive) | GI50 (SNB-19): 25.5 µM (inactive) | GI50 (SK-OV-3): > 100 µM (inactive) | GI50 (SF-539): > 100 µM (inactive) | GI50 (HL-60): > 100 µM (inactive) | GI50 (BT-549): > 100 µM (inactive)
